Laboratory results reported in patent publication US20140303105A1, “Primycin and components thereof for use in the treatment or prevention of infections caused by specific pathogens” (PANNONPHARMA GYÓGYSZERGYÁRTÓ ZRT., priority 2011, published 2014).

Columns and labels:
B. subtilis ATCC 6633 = settings: by Bryskier; cited from earlier work
[1] = system: Coagulase-negative Staphylococus sp., methicillin resistant; test: Standard microdilution susceptibility test, clinical isolates; assay type: cell-based; settings: 10 clinical isolates
[2] = system: Enterococcus sp., vancomycin susceptible; test: as above; assay type: cell-based; settings: 20 clinical isolates
Streptococcus mitis 5728 = settings: cited from earlier work
S. aureus ATCC 25923 = settings: by Bryskier; cited from earlier work
[3] = system: erythromycin-sensitive Staphylococcus spp. strains; settings: collection of 279 strains; cited from earlier work
Gram-negative species [4] = settings: Horváth 1979; the patent calls the statement unfounded; cited from earlier work
Diphteroides 8264 = settings: cited from earlier work
Staphylococcus capitis = settings: cited from earlier work
[5] = system: Staphylococcus epidermidis; settings: by Bryskier; cited from earlier work
[6] = system: Serotype β Streptococcus 8252; settings: cited from earlier work
[7] = system: Staphylococcus aureus ATCC 700699 (VISA); test: Microdilution MIC, ATCC reference strains; assay type: cell-based
Description: (§1) Identification and characterization of resistance patterns of these bacteria were performed by standard methods.
(§2) When forming the test groups we attached great importance to the increasing incidence of drug-resistant microbes causing therapeutic problems. Most important of them are methicillin-resistant Staphylococcus aureus (MRSA), methicillin-resistant coagulase-negative Staphylococcus spp. (MRCoNS), penicillin-resistant Streptococcus pneumoniae (pneumococcus), vancomycin-resistant Enterococcus spp. (VRE). Pneumococcus isolates represented various serotypes, VRE isolates belonged to various species. Moreover, vancomycin-resistance of VRE isolates was based on different genetic backgrounds. Antibiotic-resistant strains were also represented among international reference strains, for example methicillin-resistant Staphylococcus aureus ATCC 43300 (MRSA), Staphylococcus aureus with decreased vancomycin susceptibility ATCC 700698 and 700699 (vancomycin intermediate Staphylococcus aureus—VISA), mupirocin-resistant Staphylococcus aureus ATCC BAA1708 and vancomycin-resistant Enterococcus faecalis ATCC 51299 (VRE).
(§3) Susceptibility tests were performed according to the standard microdilution method (NCCLS (CLSI) M7-A7).
(§4) The lowest concentration at which no bacterial growth was observed after the incubation period is the Minimal Inhibitory Concentration (MIC). The MIC value is inversely proportional to the antimicrobial efficacy. MIC values of antimicrobial agents can differ by species or even by bacterial strains within species.

[8] = system: Staphylococcus aureus ATCC 43300 (MRSA); test: Microdilution MIC, ATCC reference strains; assay type: cell-based
Description: as §1, §2, §3, §4

[9] = system: Enterococcus faecalis ATCC 29212; test: Microdilution MIC, ATCC reference strains; assay type: cell-based
Description: as §1, §2, §3, §4

[10] = system: Staphylococcus aureus ATCC 700698 (VISA); test: Microdilution MIC, ATCC reference strains; assay type: cell-based
Description: as §1, §2, §3, §4

[11] = system: Bacillus subtilis ATCC 6633; test: Microdilution MIC, ATCC reference strains; assay type: cell-based
Description: as §1, §2, §3, §4

[12] = system: Staphylococcus aureus ATCC 25923; test: Microdilution MIC, ATCC reference strains; assay type: cell-based
Description: as §1, §2, §3, §4

Streptococcus ATCC 49619 = test: Microdilution MIC, ATCC reference strains; assay type: cell-based
Description: as §1, §2, §3, §4

[13] = system: Escherichia coli ATCC 25922; test: Microdilution MIC, ATCC reference strains; assay type: cell-based
Description: as §1, §2, §3, §4

[14] = system: Staphylococcus aureus ATCC BAA1708 (mupirocin-resistant); test: Microdilution MIC, ATCC reference strains; assay type: cell-based
Description: as §1, §2, §3, §4

[15] = system: Enterococcus faecalis ATCC 51299 (VRE); test: Microdilution MIC, ATCC reference strains; assay type: cell-based
Description: as §1, §2, §3, §4

[16] = system: Staphylococcus aureus ATCC 29213; test: Microdilution MIC, ATCC reference strains; assay type: cell-based
Description: as §1, §2, §3, §4

[17] = system: Enterococcus hirae ATCC 8043; test: Microdilution MIC, ATCC reference strains; assay type: cell-based
Description: as §1, §2, §3, §4

[18] = system: Staphylococcus aureus ATCC 25923; settings: cited from earlier work
Gram-negative species [19] = settings: crystalline primycin and amorphous predecessor; Uri and Actor 1979; cited from earlier work
[20] = system: Enterobacter cloacae B 520; settings: cited from earlier work
[21] = system: Streptococcus pneumoniae, penicillin resistant; test: Standard microdilution susceptibility test, clinical isolates; assay type: cell-based
[22] = system: Streptococcus pneumoniae, penicillin susceptible; test: as above; assay type: cell-based; settings: for MIC: single isolate
[23] = system: Bacillus subtilis ATCC 6633; settings: cited from earlier work
[24] = system: Streptococcus viridans sp.; test: Standard microdilution susceptibility test, clinical isolates; assay type: cell-based; settings: 20 clinical isolates
S. pyogenes = settings: by Bryskier; cited from earlier work
[25] = system: Staphylococcus epidermidis 7586; settings: cited from earlier work

In the case of Primycin, the MIC (B. subtilis ATCC 6633) is given as 0.39 µg/mL, the “MIC 50%” value [1] is given as 0.06 µg/mL and the “MIC 90%” value [1] is given as 0.06 µg/mL. For the same substance, the “MIC Range” value [1] was 0.03 to 0.06 µg/mL, the “Ratio of Sensitive/Total” value [1] was 10/10 and the “MIC 50%” value [2] was 0.5 µg/mL. The “MIC 90%” value [2] was 0.5 µg/mL, the “MIC Range” value [2] was 0.5 to 1 µg/mL and the “Ratio of Sensitive/Total” value [2] was 20/20. The MIC (Streptococcus mitis 5728) was 50.0 µg/mL, the MIC (S. aureus ATCC 25923) was 25 µg/mL and the “share of strains primycin-resistant (MIC≧5 mg/L)” value [3] was 1%. The “MIC versus Gram-positives” value (Gram-negative species [4]) was “hundred times higher”, the MIC (Diphteroides 8264) was 50.0 µg/mL and the MIC (Staphylococcus capitis) was 0.78 µg/mL. For the same substance, the MIC [5] was 0.78 µg/mL, the MIC [6] was 1.56 µg/mL and the “Primycin MIC” value [7] was 0.125 µg/mL. For the same substance, the “Primycin MIC” value [8] was 0.06 µg/mL, the “Primycin MIC” value [9] was 0.5 µg/mL and the “Primycin MIC” value [10] was 0.06 µg/mL. For the same substance, the “Primycin MIC” value [11] was 0.03 µg/mL, the “Primycin MIC” value [12] was 0.06 µg/mL and the “Primycin MIC” value (Streptococcus ATCC 49619) was 0.5 µg/mL. For the same substance, the “Primycin MIC” value [13] was greater than 64 µg/mL, the “Primycin MIC” value [14] was 0.06 µg/mL and the “Primycin MIC” value [15] was 1 µg/mL. The “Primycin MIC” value [16] was 0.06 µg/mL, the “Primycin MIC” value [17] was 0.5 µg/mL and the MIC [18] was 25.0 µg/mL. For the same substance, the “efficacy against Gram-negative species” value (Gram-negative species [19]) was “ineffective”, the MIC [20] was 50.0 µg/mL and the “MIC 50%” value ([21]; 10 clinical isolates) was 0.5 µg/mL. The “MIC 90%” value ([21]; 10 clinical isolates) was 1 µg/mL, the “MIC Range” value ([21]; 10 clinical isolates) was 0.5 to 1 µg/mL and the “Ratio of Sensitive/Total” value ([21]; 10 clinical isolates) was 10/10. For the same substance, the MIC ([21]; single isolate, serotype 23(F)) was 0.5 µg/mL, the “MIC 50%” value ([22]; 10 clinical isolates) was 0.5 µg/mL and the “MIC 90%” value ([22]; 10 clinical isolates) was 0.5 µg/mL. For the same substance, the “MIC Range” value ([22]; 10 clinical isolates) was 0.25 to 1 µg/mL, the “Ratio of Sensitive/Total” value ([22]; 10 clinical isolates) was 10/10 and the MIC ([22]; serotype 3) was 0.5 µg/mL. The MIC ([22]; serotype 4) was 0.5 µg/mL, the MIC ([22]; serotype 7F) was 0.5 µg/mL and the MIC ([22]; serotype 8) was 0.5 µg/mL. The MIC ([22]; serotype 9(V)) was 0.5 µg/mL, the MIC ([22]; serotype 11(A)) was 0.5 µg/mL and the MIC ([22]; serotype 19F) was 0.5 µg/mL. For the same substance, the MIC ([22]; serotype 23(F)) was 0.25 µg/mL, the MIC [23] was 0.39 µg/mL and the “MIC 50%” value [24] was 1 µg/mL. The “MIC 90%” value [24] was 1 µg/mL, the “MIC Range” value [24] was 0.5 to 1 µg/mL and the “Ratio of Sensitive/Total” value [24] was 20/20. The MIC (S. pyogenes) was 1.56 µg/mL and the MIC [25] was 0.78 µg/mL.
